# Experimental data published in patent US11008572B2, “Methods and compositions for modulating splicing” (SKYHAWK THERAPEUTICS, INC., priority 2017, dated 2021).
# Like-named read-outs stand apart in the source and are kept apart here.
# Legend:
# Format in all cases: cell-based
# A-673 cells = test: Cell viability, crystal violet staining; settings: Homo sapiens
# Outline: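 Readout is absorbance at 570 nm of crystal violet, taken up in 0.1 M sodium citrate in 50% ethanol after staining with 0.5% dye in 25% methanol. Plates held 5×10^3 cells per well, and compounds were added one day after seeding for 72 hours. Data are relative to vehicle, mean±SE.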
# [1] = tested on: FOXM1^A2 mRNA and FOXM1^BC mRNA; test: Splicing assay (FOXM1), qPCR of isoform mRNAs
# Outline: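 Cells (20,000/well) treated at plating with compound, 8-point 4-fold series from 10 μM, 0.2% DMSO, 24 h at 37° C. Isoform mRNAs quantified by RT-qPCR against plasmid standards, normalized to PPIA and DMSO control; isoform ratio computed per concentration.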
# IKBKAP^FL mRNA = test: IKBKAP splicing assay, qPCR; settings: 24 hours of incubation
# Method: (§1) Various cells lines were treated with the SMSMs described herein. RNA was then isolated, cDNA synthesized, qPCR performed and the levels of IKBKAP targets of the SMSMs were determined.
# (§2) On the day of the experiment, a 96-well plate was seeded with the cell lines of interest. The cells were diluted with full growth media to a concentration of 2.0×10^5 cells/mL and 100 μL of cells were added to each well (20,000 cells per well). The cells were treated with a compound immediately after plating.
# (§3) The compounds were then added to the cell plate using the HP compound dispenser. In the initial experiment, a top concentration of 10 μM and an 8 point 4-fold dilution scheme was used. The stock compounds were made at a concentration of 5 mM, and the DMSO concentration was set to 0.2%. DMSO was used to normalize all the compound-containing wells and the untreated cells.
# (§4) The treated cells were incubated at 37° C. in a 5% CO2 incubator for the desired amount of time. Plates were placed in a plastic bag with a wet paper towel to prevent evaporation.
# (§5) RNA was isolated using the Cells to CT kit (ThermoFisher, AM1728). The cells were washed once with 100 μL cold PBS. 50 μL of lysis buffer was added to each well/tube (49.5 μL lysis buffer+0.5 μL DNase I per well/tube). The lysis reaction was mixed and incubated at room temperature for 5 minutes. 5 μL of stop solution was added directly into each cell lysis reaction and mixed by pipetting up and down 5 times. The plates/tubes were incubated at room temperature for 2 minutes then placed on ice if the cDNA synthesis was to be performed immediately. Otherwise, the plates/tubes were stored at −80° C.
# (§6) cDNA synthesis reactions were then performed. 40 μL RT master mix was added to PCR tubes or plate wells. 10 μL of RNA was added to each tube/well. The RT thermal cycler program was then run and tubes or plate wells were incubated at 37° C. for 1 hour, then at 95° C. for 5 minutes to deactivate the enzyme.
# (§7) The qPCR was performed using a QuantStudio 6 instrument (ThermoFisher) and the following cycling conditions and according to the tables below. All samples and standards were analyzed in triplicate. Cycle 1: 2 minutes at 50° C. Cycle 2: 10 minutes at 95° C. Cycle 3 (repeat 40 times): 15 seconds at 95° C., 1 minute at 60° C.
# (§8) The determined IKBKAP^FL and […] isoform quantities were then used to determine the IKBKAP^FL: IKBKAP^Δ20 ratio at increasing SMSM compound concentrations. The PPIA quantities were used in the normalization to account of cell proliferation effects of the compounds.
# (§9) An assay to measure the IKBKAP^FL mRNA and IKBKAP^Δ20 mRNA simultaneously in cell wells was performed. The RNA values were measured relative to DMSO control and also included a housekeeping gene, PPIA to ensure data was consistent. The mRNA values were measured after 24 hours of incubation with the SMSM compounds.
# IKBKAP^Δ20 mRNA = test: IKBKAP splicing assay, qPCR; settings: 24 hours of incubation
# Method: as §1, §2, §3, §4, §5, §6, §7, §8, §9
# [2] = Splicing (IC50), Example 22; settings: spliced gene and cells not stated
# Method: A-673 cell viability […], splicing (IC50) and brain AUC/Plasma AUC of SMSMs were determined. As shown in the tables below SMSMs had high CNS exposure.
# [3] = A673, cell viability, read-out: A-673 IC50 (nM) Cell viability
# [4] = FoxM1 BC mRNA decrease (exon included), read-out: Splice IC50 (nM) FoxM1 BC mRNA decrease (exon included)
# [5] = read-out: Splice EC50 (nM) FoxM1 A mRNA increase (exon excluded)
# [6] = A673, cell viability, read-out: A-673 IC50 (nM), Cell viability
# [7] = 24 h, FoxM1 BC mRNA decrease (exon included), 0.1-1000 nM, 24 hours, read-out: Splice IC50 (nM), FoxM1 BC mRNA decrease (exon included)
# [8] = FoxM1 A mRNA increase (exon excluded), 0.1-1000 nM, 24 hours, read-out: Splice EC50 (nM), FoxM1 A mRNA increase (exon excluded)
Structure (SMILES),EC50 (IKBKAP^FL mRNA) [nM],IC50 (IKBKAP^Δ20 mRNA) [nM],IC50 [2] [nM],IC50 (A-673 cells; [6]) [nM],"IC50 [1, 7] [nM]","EC50 [1, 8] [nM]",also measured
"C[C@]12CC[C@](C)(C[C@@H](Oc3ccc(-c4ccc(-c5cn[nH]c5)cc4O)nn3)C1)N2 [compound 152, 2-(6-(((1R,3s,5S)-1,5-dimethyl-8-azabicyclo[3.2.1]octan-3-yl)oxy)pyridazin-3-yl)-5-(1H-pyrazol-4-yl)phenol]",351 to 1000,> 1000,–,–,–,–,"IC50 (A-673 cells; [3]): 101 to 250 nM; IC50 [1, 4]: 10 to 100 nM; EC50 [1, 5]: 10 to 100 nM"
"CN(c1ccc(-c2cc(F)c(-c3cn[nH]c3)cc2O)nn1)[C@@H]1C[C@H]2CC[C@@H](C1)N2 [compound 161, 2-(6-(((1R,3s,5S)-8-azabicyclo[3.2.1]octan-3-yl)(methyl)amino)pyridazin-3-yl)-4-fluoro-5-(1H-pyrazol-4-yl)phenol]",< 100,< 200,–,–,–,–,"IC50 (A-673 cells; [3]): < 10 nM; IC50 [1, 4]: < 10 nM; EC50 [1, 5]: < 10 nM"
"CN(c1ccc(-c2cc(F)c(-c3ccn(C)c(=O)c3)cc2O)nn1)[C@H]1C[C@]2(C)CC[C@](C)(C1)N2 [compound 169, 4-(4-(6-(((1R,3s,5S)-1,5-dimethyl-8-azabicyclo[3.2.1]octan-3-yl)(methyl)amino)pyridazin-3-yl)-2-fluoro-5-hydroxyphenyl)-1-methylpyridin-2(1H)-one]",–,–,< 1,–,–,–,"IC50 (A-673 cells; [3]): < 10 nM; IC50 (A-673 cells; A673, read-out: A-673 cell viability (IC50)): ≤ 5 nM; IC50 [1, 4]: < 10 nM; EC50 [1, 5]: > 1000 nM"
"CN(c1ccc(-c2ccc(-n3ccnc3)cc2O)nn1)[C@@H]1C[C@H]2CC[C@@H](C1)N2 [compound 217, 2-(6-(((1R,3s,5S)-8-azabicyclo[3.2.1]octan-3-yl)(methyl)amino)pyridazin-3-yl)-5-(1H-imidazol-1-yl)phenol]",351 to 1000,201 to 1000,–,10 to 100,10 to 100,< 10,–
"Cc1cn(-c2ccc(-c3ccc(N(C)[C@@H]4C[C@H]5CC[C@@H](C4)N5)nn3)c(O)c2)cn1 [compound 218, 2-(6-(((1R,3s,5S)-8-azabicyclo[3.2.1]octan-3-yl)(methyl)amino)pyridazin-3-yl)-5-(4-methyl-1H-imidazol-1-yl)phenol]",351 to 1000,> 1000,–,10 to 100,< 10,< 10,–
"CN(c1ccc(-c2ccc(-n3nccn3)cc2O)nn1)[C@@H]1C[C@H]2CC[C@@H](C1)N2 [compound 223, 2-(6-(((1R,3s,5S)-8-azabicyclo[3.2.1]octan-3-yl)(methyl)amino)pyridazin-3-yl)-5-(2H-1,2,3-triazol-2-yl)phenol]",101 to 350,> 1000,–,10 to 100,< 10,< 10,"IC50 ([1]; Homo sapiens, A-375, 24 h, A-375 cells, 24 hours, table does not say EC50 or IC50, read-out: FOXM1): 11 to 100 nM; IC50 ([1]; Homo sapiens, BXPC-3, 24 h, BxPC-3 cells, 24 hours, table does not say EC50 or IC50, read-out: FOXM1): 200 to 500 nM; IC50 ([1]; Homo sapiens, DU-145, 24 h, DU-145 cells, 24 hours, table does not say EC50 or IC50, read-out: FOXM1): 200 to 500 nM; IC50 ([1]; Homo sapiens, Daoy, 24 h, Daoy cells, 24 hours, table does not say EC50 or IC50, read-out: FOXM1): 101 to 200 nM; IC50 ([1]; Homo sapiens, G-401, 24 h, G-401 cells, 24 hours, table does not say EC50 or IC50, read-out: FOXM1): 11 to 100 nM; IC50 ([1]; Homo sapiens, SH-SY5Y, 24 h, SH-SY5Y cells, 24 hours, table does not say EC50 or IC50, read-out: FOXM1): 11 to 100 nM; IC50 ([1]; Homo sapiens, TT, 24 h, T.T cells, 24 hours, table does not say EC50 or IC50, read-out: FOXM1): 101 to 200 nM"
"Cc1ncc(-c2ccc(-c3ccc(N(C)[C@@H]4C[C@H]5CC[C@@H](C4)N5)nn3)c(O)c2)o1 [compound 228, 2-(6-(((1R,3s,5S)-8-azabicyclo[3.2.1]octan-3-yl)(methyl)amino)pyridazin-3-yl)-5-(2-methyloxazol-5-yl)phenol]",351 to 1000,> 1000,–,10 to 100,10 to 100,< 10,–
"CN(c1ccc(-c2ccc(-c3cnn(C)c(=O)c3)cc2O)nn1)[C@@H]1C[C@H]2CC[C@@H](C1)N2 [compound 238, 5-(4-(6-(((1R,3s,5S)-8-azabicyclo[3.2.1]octan-3-yl)(methyl)amino)pyridazin-3-yl)-3-hydroxyphenyl)-2-methylpyridazin-3(2H)-one]",101 to 350,201 to 1000,–,10 to 100,10 to 100,< 10,–
"CN(c1ccc(-c2ccc(-c3ccn(C)c(=O)c3)cc2O)nn1)[C@@H]1C[C@H]2CC[C@@H](C1)N2 [compound 240, 4-(4-(6-(((1R,3s,5S)-8-azabicyclo[3.2.1]octan-3-yl)(methyl)amino)pyridazin-3-yl)-3-hydroxyphenyl)-1-methylpyridin-2(1H)-one]",101 to 350,201 to 1000,–,10 to 100,< 10,< 10,–
"Oc1cc(-n2ccnc2)ccc1-c1ccc(O[C@@H]2C[C@H]3CC[C@@H](C2)N3)nn1 [compound 245, 2-(6-(((1R,3s,5S)-8-azabicyclo[3.2.1]octan-3-yl)oxy)pyridazin-3-yl)-5-(1H-imidazol-1-yl)phenol]",–,–,30,501 to 1000,101 to 250,10 to 100,–
"Oc1cc(-n2nccn2)ccc1-c1ccc(O[C@@H]2C[C@H]3CC[C@@H](C2)N3)nn1 [compound 251, 2-(6-(((1R,3s,5S)-8-azabicyclo[3.2.1]octan-3-yl)oxy)pyridazin-3-yl)-5-(2H-1,2,3-triazol-2-yl)phenol]",–,–,150,251 to 500,101 to 250,10 to 100,–
"Cc1nnnn1-c1ccc(-c2ccc(O[C@@H]3C[C@H]4CC[C@@H](C3)N4)nn2)c(O)c1 [compound 257, 2-(6-(((1R,3s,5S)-8-azabicyclo[3.2.1]octan-3-yl)oxy)pyridazin-3-yl)-5-(5-methyl-1H-tetrazol-1-yl)phenol]",–,–,121,> 1000,–,–,–
"Cc1nnn(-c2ccc(-c3ccc(O[C@@H]4C[C@H]5CC[C@@H](C4)N5)nn3)c(O)c2)n1 [compound 258, 2-(6-(((1R,3s,5S)-8-azabicyclo[3.2.1]octan-3-yl)oxy)pyridazin-3-yl)-5-(5-methyl-2H-tetrazol-2-yl)phenol]",–,–,149,251 to 500,101 to 250,10 to 100,–
"[2H]C([2H])([2H])n1ncc(-c2ccc(-c3ccc(N(C)[C@@H]4C[C@H]5CC[C@@H](C4)N5)nn3)c(O)c2)cc1=O [compound 282, 5-(4-(6-(((1R,3s,5S)-8-azabicyclo[3.2.1]octan-3-yl)(methyl)amino)pyridazin-3-yl)-3-hydroxyphenyl)-2-(methyl-d3)pyridazin-3(2H)-one]",101 to 350,201 to 1000,–,10 to 100,10 to 100,< 10,–
